In ChEMBL document CHEMBL6127085, “Design, synthesis and evaluation of novel LpxC inhibitors containing a hydrazone moiety as Gram-negative antibacterial agents” (Eur J Med Chem, 2024):
Converted amounts (≈) assume the structure as drawn.

Key:
[1] = Plasma protein binding in rat assessed as drug recovery at 1 uM incubated for 6 hrs by LC-MS/MS analysis; assay type: ADME, cell-free; conditions: read-out: Drug recovery
[2] = Stability in human plasma at 1 uM incubated for 6 hrs by LC-MS/MS analysis; assay type: ADME, cell-free; conditions: read-out: Stability
[3] = Metabolic stability in human liver microsomes assessed as intrinsic clearance at 1 uM preincubated for 5 mins followed by NADPH addition and measured after 5 to 60 mins by LC-MS analysis; assay type: ADME, Microsome; conditions: time 10-65 min, read-out: CLH
[4] = Volume of distribution at steady state in male Sprague-Dawley rat at 1 mg/kg, iv measured upto 24 hrs by LC-MS analysis; assay type: ADME, organism-based; conditions: in vivo, read-out: Vdss
[5] = Metabolic stability in rat liver microsomes assessed as half life at 1 uM preincubated for 5 mins followed by NADPH addition and measured after 5 to 60 mins by LC-MS analysis; assay type: ADME, Microsome; conditions: liver microsomes, time 10-65 min
[6] = Clearance in male Sprague-Dawley rat at 1 mg/kg, iv measured upto 24 hrs by LC-MS analysis; assay type: ADME, organism-based; conditions: in vivo
[7] = tested on: Pseudomonas aeruginosa; experiment: Antibacterial activity against Pseudomonas aeruginosa clinical isolate PAE22-1 assessed as reduction in bacterial growth measured after 18 to 24 hrs by CLSI protocol based method; assay type: functional; conditions: time 18-24 hrs
[8] = Oral bioavailability in male Sprague-Dawley rat at 10 mg/kg, IG measured upto 24 hrs by LC-MS analysis; assay type: ADME, organism-based; conditions: in vivo
[9] = MRT (0 to t) in male Sprague-Dawley rat at 10 mg/kg, IG measured upto 24 hrs by LC-MS analysis; assay type: ADME, organism-based; conditions: in vivo, po
[10] = tested on: Escherichia coli; experiment: Antibacterial activity against Escherichia coli ATCC25922 assessed as reduction in bacterial growth measured after 18 to 24 hrs by CLSI protocol based method; assay type: functional; conditions: time 18-24 hrs
[11] = Tmax in male Sprague-Dawley rat at 10 mg/kg, IG measured upto 24 hrs by LC-MS analysis; assay type: ADME, organism-based; conditions: in vivo, po
[12] = Intrinsic clearance in human; assay type: ADME; conditions: read-out: CLH
[13] = Stability in mouse plasma at 1 uM incubated for 6 hrs by LC-MS/MS analysis; assay type: ADME, cell-free; conditions: read-out: Stability
[14] = MRT (0 to t) in male Sprague-Dawley rat at 1 mg/kg, iv measured upto 24 hrs by LC-MS analysis; assay type: ADME, organism-based; conditions: in vivo
[15] = Metabolic stability in mouse liver microsomes assessed as half life at 1 uM preincubated for 5 mins followed by NADPH addition and measured after 5 to 60 mins by LC-MS analysis; assay type: ADME, Microsome; conditions: liver microsomes, time 10-65 min
[16] = tested on: HepG2; experiment: Cytotoxicity against human HepG2 cells assessed as inhibition of cell growth measured after 48 hrs by MTT assay; assay type: functional, cell-based; conditions: HepG2, 48 h
[17] = Stability in rat plasma at 1 uM incubated for 6 hrs by LC-MS/MS analysis; assay type: ADME, cell-free; conditions: read-out: Stability
[18] = tested on: Klebsiella pneumoniae; experiment: Antibacterial activity against Klebsiella pneumoniae ATCC700603 assessed as reduction in bacterial growth measured after 18 to 24 hrs by CLSI protocol based method; assay type: functional; conditions: time 18-24 hrs
[19] = AUC (0 to t) in male Sprague-Dawley rat at 10 mg/kg, IG measured upto 24 hrs by LC-MS analysis; assay type: ADME, organism-based; conditions: in vivo, po
[20] = Half life in male Sprague-Dawley rat at 10 mg/kg, IG measured upto 24 hrs by LC-MS analysis; assay type: ADME, organism-based; conditions: in vivo, po
[21] = AUC (0 to t) in male Sprague-Dawley rat at 1 mg/kg, iv measured upto 24 hrs by LC-MS analysis; assay type: ADME, organism-based; conditions: in vivo
[22] = Metabolic stability in mouse liver microsomes assessed as intrinsic clearance at 1 uM preincubated for 5 mins followed by NADPH addition and measured after 5 to 60 mins by LC-MS analysis; assay type: ADME, Microsome; conditions: liver microsomes, time 10-65 min, read-out: CLH
[23] = tested on: Pseudomonas aeruginosa; experiment: Antibacterial activity against Pseudomonas aeruginosa ATCC27853 assessed as reduction in bacterial growth measured after 18 to 24 hrs by CLSI protocol based method; assay type: functional; conditions: time 18-24 hrs
[24] = Metabolic stability in human liver microsomes assessed as half life at 1 uM preincubated for 5 mins followed by NADPH addition and measured after 5 to 60 mins by LC-MS analysis; assay type: ADME, Microsome; conditions: liver microsomes, time 10-65 min
[25] = tested on: Klebsiella pneumoniae; experiment: Antibacterial activity against Klebsiella pneumoniae clinical isolate KPN+22-1 assessed as reduction in bacterial growth measured after 18 to 24 hrs by CLSI protocol based method; assay type: functional; conditions: time 18-24 hrs
[26] = Intrinsic clearance in mouse; assay type: ADME, organism-based; conditions: read-out: CLH
[27] = Half life in male Sprague-Dawley rat at 1 mg/kg, iv measured upto 24 hrs by LC-MS analysis; assay type: ADME, organism-based; conditions: in vivo
[28] = Plasma protein binding in mouse assessed as drug recovery at 1 uM incubated for 6 hrs by LC-MS/MS analysis; assay type: ADME, cell-free; conditions: read-out: Drug recovery
[29] = Plasma protein binding in human assessed as drug recovery at 1 uM incubated for 6 hrs by LC-MS/MS analysis; assay type: ADME, cell-free; conditions: read-out: Drug recovery
[30] = Intrinsic clearance in rat; assay type: ADME; conditions: read-out: CLH
[31] = Metabolic stability in rat liver microsomes assessed as intrinsic clearance at 1 uM preincubated for 5 mins followed by NADPH addition and measured after 5 to 60 mins by LC-MS analysis; assay type: ADME, Microsome; conditions: liver microsomes, time 10-65 min, read-out: CLH
[32] = Cmax in male Sprague-Dawley rat at 10 mg/kg, IG measured upto 24 hrs by LC-MS analysis; assay type: ADME, organism-based; conditions: in vivo, po
[33] = tested on: Escherichia coli; experiment: Potency index, ratio of CHIR-090 MIC to test compound MIC for antibacterial activity against Escherichia coli ATCC25922 assessed as reduction in bacterial growth measured after 18 to 24 hrs by CLSI protocol based method; assay type: functional; conditions: time 18-24 hrs

microsomal CLint at 1 µM [3] [µL/min/mg]	half-life at 1 µM [5] [h]	MIC [7] [µg/mL]	MIC [10] [µg/mL]	CLint scaled [12] [mL/min/kg]	half-life at 1 µM [15] [h]	MIC [18] [µg/mL]	microsomal CLint at 1 µM [22] [µL/min/mg]	MIC [23] [µg/mL]	half-life at 1 µM [24] [h]	MIC [25] [µg/mL]	CLint scaled [26] [mL/min/kg]	CLint scaled [30] [mL/min/kg]	microsomal CLint at 1 µM [31] [µL/min/mg]	SMILES	Ratio [33]	further results
4.73	4.58	4 (≈ 7.73 µM)	0.03 (≈ 0.058 µM)	4.47	2.08	16 (≈ 30.9 µM)	12.2	2 (≈ 3.86 µM)	4.9	2 (≈ 3.86 µM)	48	9.09	5.05	C[C@@H](O)[C@H](NC(=O)c1ccc(C#Cc2ccc(/C=N/N3CCN(C(=O)C4CC4)CC3)cc2)cc1)C(=O)NO	–	–
4.51	3.5	4 (≈ 7.91 µM)	0.03 (≈ 0.0593 µM)	4.26	3.37	16 (≈ 31.6 µM)	7.23	4 (≈ 7.91 µM)	5.15	2 (≈ 3.96 µM)	28.5	12.1	6.7	CCC(=O)N1CCN(/N=C/c2ccc(C#Cc3ccc(C(=O)N[C@H](C(=O)NO)[C@@H](C)O)cc3)cc2)CC1	–	–

The next lines start with the compound.

SMILES	microsomal CLint at 1 µM [3] [µL/min/mg]	half-life at 1 µM [5] [h]	MIC [7] [µg/mL]	MIC [10] [µg/mL]	CLint scaled [12] [mL/min/kg]	half-life at 1 µM [15] [h]	MIC [18] [µg/mL]	microsomal CLint at 1 µM [22] [µL/min/mg]	MIC [23] [µg/mL]	half-life at 1 µM [24] [h]	MIC [25] [µg/mL]	CLint scaled [26] [mL/min/kg]	CLint scaled [30] [mL/min/kg]	microsomal CLint at 1 µM [31] [µL/min/mg]	Ratio [33]	further results
C[C@@H](O)[C@H](NC(=O)c1ccc(C#Cc2ccc(CN3CCOCC3)cc2)cc1)C(=O)NO	1.38	0.362	2 (≈ 4.57 µM)	0.5 (≈ 1.14 µM)	1.3	1.23	8 (≈ 18.3 µM)	18.8	4 (≈ 9.14 µM)	16.8	1 (≈ 2.29 µM)	74.2	115	64	–	recovery at 6 h, 1 µM [1]: 91.7%; remaining at 6 h, 1 µM [2]: 106%; Vd [4]: 0.98 L/kg; clearance [6]: 66.7 mL/min/kg; bioavailability [8]: 10.6%; MRT last at 24 h [9]: 1.09 h; Tmax [11]: 0.25 h; remaining at 6 h, 1 µM [13]: 93.2%; MRT last at 24 h [14]: 0.24 h; IC50 [16]: > 30 µM; remaining at 6 h, 1 µM [17]: 94.5%; AUC(0-t) at 24 h [19]: 243 ng·h/mL; half-life [20]: 1.12 h; AUC(0-t) at 24 h [21]: 249 ng·h/mL; half-life [27]: 0.29 h; recovery at 6 h, 1 µM [28]: 98.6%; recovery at 6 h, 1 µM [29]: 101%; Cmax [32]: 262 ng/mL
C[C@@H](O)[C@H](NC(=O)c1ccc(C#Cc2ccc(/C=N/N3CCSCC3)cc2)cc1)C(=O)NO	–	–	8 (≈ 17.1 µM)	0.25 (≈ 0.536 µM)	–	–	> 64	–	> 64	–	1 (≈ 2.14 µM)	–	–	–	2	–
C[C@@H](O)[C@H](NC(=O)c1ccc(C#Cc2ccc(/C=N/N3CCN(C(=O)C(C)(C)C)CC3)cc2)cc1)C(=O)NO	19.4	1.48	> 32	0.25 (≈ 0.468 µM)	18.4	2.53	> 32	9.29	> 32	1.37	8 (≈ 15 µM)	36.6	28.1	15.6	–	–
C[C@@H](O)[C@H](NC(=O)c1ccc(C#Cc2ccc(/C=N/N3CCOCC3)cc2)cc1)C(=O)NO	7.16	7.9	1 (≈ 2.22 µM)	0.25 (≈ 0.555 µM)	6.76	6.1	> 64	1.79	> 64	4.98	1 (≈ 2.22 µM)	7.04	8.15	4.53	2	–
